The target of experiment [1] is T1, CDK2/Cyclin A (Homo sapiens, UniProt P24941).
T1 construct: purchased Invitrogen PV6290
Kind of experiment: Enzymatic assay for CDK2 (LANCE Ultra kinase assay, FRET based). Type of experiment: biochemical. The note with it: ATP at Km. Summed up:
(§1)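 Compounds tested as 8 doses in 4-fold steps against CDK2/Cyclin A ([…]) or CDK5/p25 ([…]), with ATP at its Km and 68 nM ULight-MBP substrate. After 60 min at 23° C., EDTA plus Eu-labelled anti-phospho-MBP added; TR-FRET (615/665 nm) read after another 60 min.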

Experiment [2] deals with OVCAR-3. Kind of experiment: OVCAR-3 viability assay (CellTiter-Glo, 72 hours). The note with it: Homo sapiens; OVCAR-3 cells. It counts as cell-based. The protocol: Human […] cell line, MV4-11_(ATCC, Cat #CRL-9591), NSCLC (Non-small cell lung cancer) cell line H460 (ATCC, Cat #HTB-177), A2780 (ECACC, Cat #93112519) and OVCAR-3(ATCC, Cat #HTB-161) were obtained from ATCC. Cells were grown in RPMI-1640 media (Invitrogen, Cat #22400-089) supplemented with 10% FBS (Invitrogen, Cat #10099141) and 1% penicillin/streptomycin (Invitrogen, Cat #15070063) and cultured at 37° C., 5% CO2 in a humidified chamber. All cell lines were routinely tested for mycoplasma.
To effect of the CDK7 inhibitor to inhibit the growth of target cancer cells, viability assay were conducted a 72 hour time period. Briefly, the candidate cell line was plated in 96 well plate at the following density of cells respectively. 1×10^4 cells/well for MV4-11, 5×10^3 for H460 and OVCAR-3, and 1×10^3 for A2780. After 24 hours, the cells were treated with various concentrations of the compound (ranging from 0.0015 uM to 10 uM). DMSO solvent without compound served as a control and final DMSO concentration lest than 0.1%. After 72 hours of incubation at 37° C., 5% CO2 incubator, cells were analyzed for the viability using the CellTiter-Glo Luminescent Cell Viability Assay (Promega, Cat #G7570). All viability assays were performed in duplicate and Luminescence was read using an Envision (Perkin Elmer, USA). Data was analyzed using XLfit software.

Experiment [3] relates to A2780. Briefly: A2780 viability assay (CellTiter-Glo, 72 hours). Type of experiment: cell-based. The note with it: Homo sapiens; A2780 cells. In a few lines: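 RPMI-1640/10% FBS; plate cells (MV4-11 1×10^4, OVCAR-3 5×10^3, A2780 1×10^3 per well); 24 h later add compound 0.0015–10 uM; 72 h, 37° C; CellTiter-Glo luminescence, duplicate wells.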
For experiment [4], the target named is T2, CDK7/Cyclin H/MNAT1 (Homo sapiens, UniProt P50613).
T2 construct: purchased Invitrogen PR6749B
T2 sequence (P50613 whole entry): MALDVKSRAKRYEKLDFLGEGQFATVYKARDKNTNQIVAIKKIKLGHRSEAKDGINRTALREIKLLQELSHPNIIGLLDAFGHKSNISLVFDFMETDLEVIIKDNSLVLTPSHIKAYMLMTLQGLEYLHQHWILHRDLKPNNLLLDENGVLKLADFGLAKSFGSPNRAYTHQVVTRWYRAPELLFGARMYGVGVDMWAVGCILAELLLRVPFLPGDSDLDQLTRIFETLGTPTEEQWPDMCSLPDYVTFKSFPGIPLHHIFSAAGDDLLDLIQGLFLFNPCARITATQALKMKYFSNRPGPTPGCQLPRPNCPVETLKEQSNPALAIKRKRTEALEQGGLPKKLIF
T2 sequence (P51946 whole entry partner): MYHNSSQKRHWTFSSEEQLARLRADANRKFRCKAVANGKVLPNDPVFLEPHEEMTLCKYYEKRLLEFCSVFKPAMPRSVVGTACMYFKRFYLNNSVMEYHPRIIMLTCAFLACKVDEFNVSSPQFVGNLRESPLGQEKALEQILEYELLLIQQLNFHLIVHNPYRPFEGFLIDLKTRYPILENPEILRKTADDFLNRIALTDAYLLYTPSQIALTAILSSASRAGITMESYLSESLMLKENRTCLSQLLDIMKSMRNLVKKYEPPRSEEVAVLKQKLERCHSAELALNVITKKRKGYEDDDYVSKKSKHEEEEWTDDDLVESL
T2 sequence (P51948 whole entry partner): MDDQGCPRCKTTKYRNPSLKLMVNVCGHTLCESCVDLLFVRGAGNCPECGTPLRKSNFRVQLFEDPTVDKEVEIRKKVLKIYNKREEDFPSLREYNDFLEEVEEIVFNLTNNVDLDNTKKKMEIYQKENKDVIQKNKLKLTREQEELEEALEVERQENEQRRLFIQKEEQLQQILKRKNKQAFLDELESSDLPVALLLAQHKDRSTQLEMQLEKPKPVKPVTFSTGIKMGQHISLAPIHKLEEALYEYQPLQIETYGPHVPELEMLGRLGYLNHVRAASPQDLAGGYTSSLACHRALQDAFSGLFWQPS
Briefly: Enzymatic assay for CDK7 (LANCE Ultra kinase assay, FRET based). Type of experiment: biochemical. The settings on record: for pIC50: ATP at Km. In a few lines: (§2)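 Purified CDK–cyclin enzyme, ATP at Km; ULight peptide substrate; TR-FRET via Eu anti-phospho-Ab; inhibition scored.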

The target of experiment [5] is T3, CDK1/Cyclin B (Homo sapiens, UniProt P06493).
T3 construct: purchased Invitrogen PR4768C
T3 sequence (P06493 whole entry): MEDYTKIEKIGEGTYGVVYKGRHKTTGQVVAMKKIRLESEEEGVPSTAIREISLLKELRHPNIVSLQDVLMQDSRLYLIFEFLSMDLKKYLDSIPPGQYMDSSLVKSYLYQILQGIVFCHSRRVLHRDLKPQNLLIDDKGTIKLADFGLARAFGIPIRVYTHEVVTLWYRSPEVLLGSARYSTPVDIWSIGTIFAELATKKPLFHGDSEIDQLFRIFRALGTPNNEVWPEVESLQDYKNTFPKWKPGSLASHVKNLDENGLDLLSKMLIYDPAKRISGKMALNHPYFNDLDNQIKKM
T3 sequence (P14635 whole entry partner): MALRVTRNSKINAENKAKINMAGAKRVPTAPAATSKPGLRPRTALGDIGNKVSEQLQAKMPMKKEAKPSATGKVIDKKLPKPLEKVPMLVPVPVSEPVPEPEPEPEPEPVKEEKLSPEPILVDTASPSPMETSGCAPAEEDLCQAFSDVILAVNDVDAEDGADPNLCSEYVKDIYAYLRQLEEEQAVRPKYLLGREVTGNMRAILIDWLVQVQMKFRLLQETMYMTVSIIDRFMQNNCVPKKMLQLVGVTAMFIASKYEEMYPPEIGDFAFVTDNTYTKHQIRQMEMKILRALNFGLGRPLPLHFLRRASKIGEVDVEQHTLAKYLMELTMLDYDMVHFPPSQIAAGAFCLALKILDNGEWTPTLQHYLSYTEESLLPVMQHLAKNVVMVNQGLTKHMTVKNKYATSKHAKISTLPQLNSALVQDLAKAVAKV
Briefly: Enzymatic assay for CDK1 (LANCE Ultra kinase assay, FRET based). It counts as biochemical. The note with it: ATP at Km; read-out: CDK1 enzymatic activity IC50. Summed up:
as §2

Experiment [6] addresses T4, CDK5/p25 (Homo sapiens, UniProt Q00535).
T4 construct: purchased Invitrogen PR8543B
Kind of experiment: Enzymatic assay for CDK5 (LANCE Ultra kinase assay, FRET based). It counts as biochemical. The settings on record: ATP at Km. In a few lines:
as §1

The structures appear in SMILES notation. pIC50: −log10 of the molar value.

T4 sequence (Q00535 whole entry): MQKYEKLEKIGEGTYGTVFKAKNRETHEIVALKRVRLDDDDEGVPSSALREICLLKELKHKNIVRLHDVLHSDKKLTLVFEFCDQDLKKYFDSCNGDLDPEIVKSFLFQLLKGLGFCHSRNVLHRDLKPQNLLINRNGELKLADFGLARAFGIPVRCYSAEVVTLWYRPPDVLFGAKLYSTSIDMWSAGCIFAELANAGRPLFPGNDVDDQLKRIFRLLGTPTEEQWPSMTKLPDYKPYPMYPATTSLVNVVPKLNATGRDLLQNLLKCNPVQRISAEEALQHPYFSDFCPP
T4 sequence (Q15078 99-307 partner limits assumed): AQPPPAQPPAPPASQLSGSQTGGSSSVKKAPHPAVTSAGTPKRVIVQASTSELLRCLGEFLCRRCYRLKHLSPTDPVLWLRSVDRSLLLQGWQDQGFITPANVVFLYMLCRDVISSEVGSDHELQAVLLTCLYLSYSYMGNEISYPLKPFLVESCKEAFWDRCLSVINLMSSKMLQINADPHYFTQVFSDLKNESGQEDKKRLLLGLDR

For the compound `C=CC(=O)Nc1cccc2ccc(-c3cccc(C)c3CNc3nc(N[C@H]4CC[C@H](OC)CC4)nc4c(C(C)C)cnn34)nc12` [Compound 112], the negative-log IC50 (pIC50) in experiment [1] was less than 6.00; in experiment [2], greater than 6.00; in experiment [3] it was greater than 6.00; in experiment [4] it was 6.00 to 7.00; in experiment [5], less than 6.00; in experiment [6], less than 6.00. Moreover, the “CDK1/CDK7: Selectivity of CDK7 inhibition over CDK1 inhibition” value in experiment [4] is “B (B indicates 50 < [fold] ≤ 500)”. In addition, in experiment [4], the “CDK2/CDK7: Selectivity of CDK7 inhibition over CDK2 inhibition” value was “B (B indicates 50 < [fold] ≤ 500)”. Moreover, the “CDK5/CDK7: Selectivity of CDK7 inhibition over CDK5 inhibition” value in experiment [4] was “B (B indicates 50 < [fold] ≤ 500)”.

Turning to `CC(C)c1cnn2c(NCc3ccccc3-c3nccc4cc(NC(=O)/C=C/CN(C)C)ccc34)nc(N[C@H]3CC[C@H](C)NC3)nc12` [Compound 151], the negative logarithm of the IC50 (pIC50) is less than 6.00 in experiment [1]; greater than 6.00 in experiment [2]; greater than 6.00 in experiment [3]; greater than 7.00 in experiment [4]; less than 6.00 in experiment [5]; less than 6.00 in experiment [6]. The “CDK1/CDK7: Selectivity of CDK7 inhibition over CDK1 inhibition” value in experiment [4] is “A (A indicates [fold] > 500)”. In addition, in experiment [4], the “CDK2/CDK7: Selectivity of CDK7 inhibition over CDK2 inhibition” value was “A (A indicates [fold] > 500)”. Moreover, the “CDK5/CDK7: Selectivity of CDK7 inhibition over CDK5 inhibition” value in experiment [4] is “A (A indicates [fold] > 500)”.

As to `C=C(F)C(=O)Nc1ccc2c(-c3ccccc3CNc3nc(N[C@@H]4CCC(C)(C)NC4)nc4c(C(C)C)cnn34)nccc2c1` [Compound 174], the pIC50 in experiment [1] is less than 6.00; in experiment [2] it was greater than 6.00; in experiment [3] it was greater than 6.00; in experiment [4], greater than 7.00; in experiment [5], less than 6.00; in experiment [6], less than 6.00. Moreover, the “CDK1/CDK7: Selectivity of CDK7 inhibition over CDK1 inhibition” value in experiment [4] is “A (A indicates [fold] > 500)”. Further, in experiment [4], the “CDK2/CDK7: Selectivity of CDK7 inhibition over CDK2 inhibition” value was “A (A indicates [fold] > 500)”. Besides, the “CDK5/CDK7: Selectivity of CDK7 inhibition over CDK5 inhibition” value in experiment [4] was “A (A indicates [fold] > 500)”.

Turning to `C=C(F)C(=O)Nc1ccc2c(-c3ccccc3CNc3nc(N[C@H]4CCC(C)(C)NC4)nc4c(C(C)C)cnn34)nccc2c1` [Compound 171], the negative-log IC50 (pIC50) in experiment [1] is less than 6.00; in experiment [2] it was greater than 6.00; in experiment [3], greater than 6.00; in experiment [4] it was greater than 7.00; in experiment [5], less than 6.00; in experiment [6] it was less than 6.00. Also, the “CDK1/CDK7: Selectivity of CDK7 inhibition over CDK1 inhibition” value in experiment [4] is “A (A indicates [fold] > 500)”. In addition, the “CDK2/CDK7: Selectivity of CDK7 inhibition over CDK2 inhibition” value in experiment [4] is “A (A indicates [fold] > 500)”. In addition, the “CDK5/CDK7: Selectivity of CDK7 inhibition over CDK5 inhibition” value in experiment [4] was “A (A indicates [fold] > 500)”.

Regarding `CC(C)c1cnn2c(NCc3ccccc3-c3nccc4cc(NC(=O)/C=C/CN(C)C)ccc34)nc(NCC3CCN(C)CC3)nc12` [Compound 133], the pIC50 in experiment [1] was less than 6.00; in experiment [2], greater than 6.00; in experiment [3] it was greater than 6.00; in experiment [4], greater than 7.00; in experiment [5], less than 6.00; in experiment [6], less than 6.00. In addition, in experiment [4], the “CDK1/CDK7: Selectivity of CDK7 inhibition over CDK1 inhibition” value was “A (A indicates [fold] > 500)”. For the same compound, in experiment [4], the “CDK2/CDK7: Selectivity of CDK7 inhibition over CDK2 inhibition” value was “A (A indicates [fold] > 500)”. The “CDK5/CDK7: Selectivity of CDK7 inhibition over CDK5 inhibition” value in experiment [4] was “A (A indicates [fold] > 500)”.

On to `C=CC(=O)Nc1ccc2c(-c3ccccc3CNc3cc(N4C5CCC4CC(OC)C5)nc4c(C(C)C)cnn34)nccc2c1` (stereo not drawn) [Compound 119], for which the negative-log IC50 (pIC50) was less than 6.00 in experiment [1]; greater than 6.00 in experiment [2]; greater than 6.00 in experiment [3]; 6.00 to 7.00 in experiment [4]; less than 6.00 in experiment [5]; less than 6.00 in experiment [6]. Further, in experiment [4], the “CDK1/CDK7: Selectivity of CDK7 inhibition over CDK1 inhibition” value was “B (B indicates 50 < [fold] ≤ 500)”. In addition, the “CDK2/CDK7: Selectivity of CDK7 inhibition over CDK2 inhibition” value in experiment [4] is “B (B indicates 50 < [fold] ≤ 500)”. Also, the “CDK5/CDK7: Selectivity of CDK7 inhibition over CDK5 inhibition” value in experiment [4] was “B (B indicates 50 < [fold] ≤ 500)”.
